The text below walks through data of US12576097B2, “Anti-tumor effective component of Hedyotis diffusa, preparation method therefor and use thereof” (Guangdong New Ear Life Technology Co., Ltd., priority 2020, dated 2026).

Test [1] deals with human liver cancer Hep-G2 cells. As to the kind of experiment: Inhibition rate on human liver cancer Hep-G2 cells (CCK-8). Type of test: cell-based. As to conditions: 3 mg/mL drug solutions, 24 h. The protocol: A cryopreservation tube containing liver cancer Hep-G2 cells was taken out from a liquid nitrogen tank, quickly placed in a water bath at 38-39° C., and continuously shaken to be fully thawed within 1 min. The cryopreservation tube was centrifuged at 800 r/min for 9 min, and sprayed with 75% alcohol on the outside thereof, and then put into a ultra-clean table. The resulting supernatant was sucked and discarded. 1 ml of DMEM complete medium was added, and a mixture of the cells and the DMEM complete medium was blown evenly, and then the cells were transferred to a 25 ml culture dish. 6-8 ml of DMEM complete medium was added, and a mixture of the cells and the DMEM complete medium was gently blown evenly, and put into a constant temperature incubator at 37° C. with 5% CO2.
The old medium in the item 2.1 was sucked out. 2 ml of PBS buffer solution was added, and the cells were washed by gently shaking the culture flask. The PBS buffer solution was sucked out to remove the loose, dead and senescent cells and their metabolic wastes, and the cells were washed for 2-3 times. 2 ml of trypsin was added, and the culture dish was gently shaken for 30 s. After the trypsin was sucked out, the culture dish was put into the incubator for full digestion for 3 min, and 2 ml of fresh DMEM complete culture was added. The cells were gently blown and dispersed into individual cells under a microscope, and then 6-8 ml of fresh DMEM complete medium was added and the cells were incubated in a constant temperature incubator.
2 mL trypsin was added into the cells cultured in the item 2.2 in the logarithmic growth phase and the cells were digested for 30 s. After the trypsin was sucked out, the culture dish was placed into the incubator for full digestion for 3 min, and 2 mL of fresh medium was added. The cells were gently blown to disperse the cells into individual cells under the microscope. 10 μL of cell suspension and 10 μL of 0.4% Trypan blue staining solution were mixed well to fully stain the cells. 10 μL of the stained cell suspension was added to a cell counting plate, and the number of cells was counted by a fully automatic cell counter. The cell suspension was diluted to 2×10^5 cells/mL with a DMEM complete medium. 100 μL of cell suspension was sucked with a multichannel pipette and seeded into a 96-well plate and incubated in a constant temperature incubator at 37° C. with 5% CO2 for 24 h.
30 mL of DMEM complete medium was accurately measured, 30 μL of DMSO was added, and uniform mixing was conducted to prepare 0.1% DMSO medium. […] The kaempferol solution and the methyl ester solution having the above concentrations were uniformly mixed to prepare drug solutions having the desired ratio based on the mass ratio of kaempferol to methyl ester being 1:1, 1:2, 1:3, 1:4, 1:5, 5:1, 4:1, 3:1 and 2:1, 400 μL of each drug solution. 1 mg/mL of 5-fluorouracil solution was diluted to a concentration of 800, 600, 400, 200, 100, 50, 25 μg/mL, respectively, 400 μL of each drug solution.
The old medium in the 96-well plate in the item 2.3 was sucked out, and 100 μL of PBS buffer solution was added to each well to remove the loose, dead and senescent cells and their metabolic wastes. After that, the PBS buffer solution was sucked out. 100 μL of the prepared drug solution was added to each well, 3 wells in parallel. A negative control was set up, in which an equal volume of DMEM complete medium containing 0.1 vol % DMSO was added to each well, 3 wells in parallel. A blank control was a DMEM complete medium containing 0.1 vol % DMSO free of cells, 3 wells in parallel. The cells were incubated for 24 h in a constant temperature incubator at 37° C. with 5% CO2.
The DMEM complete medium containing 0.1 vol % DMSO in the drug solutions and negative control in the 96-well plate in the item 2.5 were sucked out. […]

Test [2] can be described thus: Spleen and thymus weight and blood count of S180 tumor-bearing mice. Type of test: in vivo, ICR mice. As to conditions: 5 mg/kg. The method, then:
168 ICR class II male mice with a weight of 18-22 g were used. The mice were kept under the conditions of the item 2.2 for adaptive feeding for four days before the experiment. After four days, the mice were weighed and their autonomy was measured. […] Each mouse was inoculated with S180 tumor according to the method in the item 2.3, and the drug was administered by gavage after inoculation.
A appropriate amount of test samples were weighed precisely, and prepared into test sample solutions having the desired concentrations by using a 5 vol % ethanol aqueous solution as a solvent, i.e.: the effective parts of 5 mg/kg, 10 mg/kg and 20 mg/kg correspond to the test sample solutions of the groups of the effective part 5, effective part 10, and effective part 20, respectively; E-6-O-(p-coumaroyl)scandoside methyl ester of 2.5 mg/kg, 5 mg/kg, 10 mg/kg, and 20 mg/kg correspond to the test sample solutions of the groups of methyl ester 2.5, methyl ester 5, methyl ester 10 and methyl ester 20, respectively; kaempferol-3-O-[2-O-(6-O-E-feruloyl)-β-D-glucopyranosyl]-β-D-galactopyranose of 2.5 mg/kg, 5 mg/kg, 10 mg/kg and 20 mg/kg correspond to the test sample solutions of the groups of kaempferol 2.5, kaempferol 5, kaempferol 10 and kaempferol 20, respectively. […] Each mouse was administered by gavage at a dose of 0.2 ml/10 g. During the administration period, the mice were fed at 3 g/mouse and ingested water and food freely. All mice were continuously administered for 9 days, and sacrificed by decapitation on day 10. Blood, tumor, liver, spleen, and thymus of mice were collected. The blood collected was placed in a low temperature environment and sent out for blood check. The weight of the tumor, liver, spleen, and thymus and the size of the tumor were recorded.
The recorded results were expressed as mean plus or minus standard deviation (X±SD), and the data were analyzed by using statistical software SPSS 11.5 software.

“Also recorded” adds a separate entry of the source.

On to `COC(=O)C1=COC(O[C@@H]2O[C@H](CO)[C@@H](O)[C@H](O)[C@H]2O)C2C(CO)=CC(OC(=O)/C=C/c3ccc(O)cc3)C12` (some centres unmarked) [Methyl ester, E-6-O-(p-coumaroyl)scandoside methyl ester], for which the inhibition rate is 7.558% in test [1] (1st measurement), 5.565% in test [1] (2nd measurement) and 7.273% in test [1] (3rd measurement). For the same compound, in test [2], the “number of erythrocytes compared among groups” value is given as “highest”. For the same compound, the “relative spleen weight compared with model group” value in test [2] (FIG. 5) was “increase”. Also, in test [2] (FIG. 6), the “relative thymus weight compared with model group” value is “increase”. Besides, in test [2] (FIG. 7), the “number of leukocytes compared with model group” value is given as “significant increase; also recorded: highest”. Also, the “percentage of lymphocytes compared with model group” value in test [2] (FIG. 8) is listed as “increased most significantly”.
